According to patent US20210347794A1, “Phosphate Derivatives of Indole Compounds and Their Use” (ARIAGEN, INC., priority 2018, published 2021):

Tests used:
EMT-6 cancer cells = assay: Anti-tumor activity in EMT-6 syngeneic mouse tumor model; format: in vivo; conditions: 80 mpk
Experimental: This example describes in vivo studies that evaluated the anti-cancer efficacy of ARI-158 and ARI-160 in syngeneic mouse tumor models. Mice implanted subcutaneously with EMT-6 cancer cells were treated with ARI-158 and ARI-160, or vehicle controls, as described below.
A monolayer culture of tumor cells was maintained in vitro in DMEM or RPMI1640 medium supplemented with 10% fetal bovine serum at 37° C. in an atmosphere of 5% CO2. Cells in exponential growth phase were harvested and quantitated by cell counter before tumor inoculation.
EMT-6 syngeneic mouse tumor models were generated by inoculating female BALB/C 6 mice with EMT-6 cancer cells at their right lower flank.
Each mouse was inoculated subcutaneously with tumor cells in 0.1 mL of PBS. Treatments were started when the mean tumor size reached approximately 80-120 mm^3 (around 100 mm^3). The administration of the test compounds and the animal number in each study group are shown in the study design. The date of tumor cell inoculation was denoted as day 0.
ARI-158 and ARI-160 were dissolved in DMSO at the final concentration of 26.7 mg/ml and stored at room temperature.
Randomization of animals was started when the mean tumor size reached approximately 90 mm^3 to form the mouse study groups. The randomization was performed based on “Matched distribution” method using the multi-task method (StudyDirector™ software, version 3.1.399.19)/randomized block design. […]
Tumor volumes were measured twice per week in two dimensions using a caliper, and the volume was expressed in mm^3 using the formula: […]
where V is tumor volume, L is tumor length (the longest tumor dimension) and W is tumor width (the longest tumor dimension perpendicular to L). Dosing as well as tumor and body weight measurements was conducted in a Laminar Flow Cabinet. The body weights and tumor volumes were measured by using StudyDirector™ software (version 3.1.399.19).
Tumor growth inhibition percentage (TGI %) is an indicator for antitumor activity of a drug compound, and expressed as: […]
where T and C are the mean tumor volume (or weight) of the treated and control groups, respectively, on a given day. Statistical analysis of the difference in mean tumor volume (MTV) among the groups was conducted using the data collected on the day when the MTV of the vehicle group reached the humane endpoints, so that TGI could be derived for all or most mice enrolled in the study.

[1] = In vivo pharmacokinetic study in dogs, oral dose of ARI-158; parameters: species or system male beagle dogs; conditions: for Plasma Concentration / AUC(0-inf) / AUC(0-t) / Cmax / Tmax / half-life / concentration at 0.083 h / concentration at 0.25 h / concentration at 0.5 h / concentration at 1 h / concentration at 2 h / concentration at 4 h / concentration at 6 h / concentration at 8 h: dogs, 10 mg/kg oral dose of ARI-158; for AUC(0-inf) / AUC(0-t) / Cmax / Tmax / half-life / concentration at 0.083 h / concentration at 0.25 h / concentration at 0.5 h / concentration at 1 h / concentration at 2 h / concentration at 4 h / concentration at 6 h / concentration at 8 h: male, beagle, dog, plasma, po, 10 mg/kg
Experimental: This example describes pharmacokinetic (PK) studies of ARI-158 and ARI-160 in dogs and rats, respectively. In the present studies, the test compounds were given to groups of male beagle dogs and rats (N=3 in each group) intravenously (IV) at 2 mg/kg or orally (PO) at 10 mg/kg. IV doses were formulated in DMSO, while PO doses were formulated in a 50/50 mixture of PEG400 and Tween 80. Blood samples were collected at pre-dose and over a period of 24 hours post-dose. Plasma concentrations of the indolo-phosphoramidate compounds were determined by HPLC.

With `CCC(=O)c1csc(C(=O)c2cn(P(=O)([O-])[O-])c3cc(F)ccc23)n1.[Na+].[Na+]` [ARI-158] the “anti-tumor efficacy (TGI) comparison” value (EMT-6 cancer cells) was “better efficacy than ARI-160”, the TGI (EMT-6 cancer cells; study day 6) was −0.01% and the TGI (EMT-6 cancer cells; study day 10) was 2.92%. For the same compound, the TGI (EMT-6 cancer cells; study day 13) was −1.75%, the TGI (EMT-6 cancer cells; study day 17) was 17.21% and the TGI (EMT-6 cancer cells; study day 20) was 38.27%. The TGI (EMT-6 cancer cells; study day 24) was 44.41%, the TGI (EMT-6 cancer cells; study day 27) was 42.16% and the TGI (EMT-6 cancer cells; study day 31) was 39.97%. For the same compound, the “Plasma Concentration” value ([1]; time 0 h, Dog 10) was “BLQ”, the “Plasma Concentration” value ([1]; time 0 h, Dog 11) was “BLQ” and the “Plasma Concentration” value ([1]; time 0 h, Dog 12) was “BLQ”. For the same compound, the “Plasma Concentration” value ([1]; time 8 h, Dog 11) was “BLQ”, the “Plasma Concentration” value ([1]; time 24 h, Dog 10) was “BLQ” and the “Plasma Concentration” value ([1]; time 24 h, Dog 11) was “BLQ”. For the same compound, the “Plasma Concentration” value ([1]; time 24 h, Dog 12) was “BLQ”, the AUC(0-inf) ([1]; Dog 10) was 1020 ng·h/mL and the AUC(0-t) ([1]; Dog 10) was 1020 ng·h/mL. The Cmax ([1]; Dog 10) was 786 ng/mL, the Tmax ([1]; Dog 10) was 30 min and the half-life ([1]; Dog 10) was 82.2 min. For the same compound, the AUC(0-inf) ([1]; Dog 11) was 677 ng·h/mL, the AUC(0-t) ([1]; Dog 11) was 675 ng·h/mL and the Cmax ([1]; Dog 11) was 561 ng/mL. It also gave a Tmax ([1]; Dog 11) of 30 min, a half-life ([1]; Dog 11) of 39.2 min and an AUC(0-inf) ([1]; Dog 12) of 676 ng·h/mL. For the same compound, the AUC(0-t) ([1]; Dog 12) was 669 ng·h/mL, the Cmax ([1]; Dog 12) was 275 ng/mL and the Tmax ([1]; Dog 12) was 60 min. It also gave a half-life ([1]; Dog 12) of 61.2 min, an AUC(0-inf) ([1]; Mean) of 791 ng·h/mL and an AUC(0-t) ([1]; Mean) of 787 ng·h/mL. The Cmax ([1]; Mean) was 541 ng/mL, the Tmax ([1]; Mean) was 40 min and the half-life ([1]; Mean) was 60.6 min. It also gave a concentration at 0.083 h ([1]; Dog 10) of 153 ng/mL, a concentration at 0.083 h ([1]; Dog 11) of 149 ng/mL and a concentration at 0.083 h ([1]; Dog 12) of 14.3 ng/mL. The concentration at 0.083 h ([1]; Mean) was 105 ng/mL, the concentration at 0.25 h ([1]; Dog 10) was 438 ng/mL and the concentration at 0.25 h ([1]; Dog 11) was 414 ng/mL. For the same compound, the concentration at 0.25 h ([1]; Dog 12) was 87.3 ng/mL, the concentration at 0.25 h ([1]; Mean) was 313 ng/mL and the concentration at 0.5 h ([1]; Dog 10) was 786 ng/mL. The concentration at 0.5 h ([1]; Dog 11) was 561 ng/mL, the concentration at 0.5 h ([1]; Dog 12) was 178 ng/mL and the concentration at 0.5 h ([1]; Mean) was 508 ng/mL. For the same compound, the concentration at 1 h ([1]; Dog 10) was 677 ng/mL, the concentration at 1 h ([1]; Dog 11) was 311 ng/mL and the concentration at 1 h ([1]; Dog 12) was 275 ng/mL. For the same compound, the concentration at 1 h ([1]; Mean) was 421 ng/mL, the concentration at 2 h ([1]; Dog 10) was 128 ng/mL and the concentration at 2 h ([1]; Dog 11) was 102 ng/mL. For the same compound, the concentration at 2 h ([1]; Dog 12) was 158 ng/mL, the concentration at 2 h ([1]; Mean) was 129 ng/mL and the concentration at 4 h ([1]; Dog 10) was 11.2 ng/mL. It also gave a concentration at 4 h ([1]; Dog 11) of 14.4 ng/mL, a concentration at 4 h ([1]; Dog 12) of 69.8 ng/mL and a concentration at 4 h ([1]; Mean) of 31.8 ng/mL. The concentration at 6 h ([1]; Dog 10) was 3.28 ng/mL, the concentration at 6 h ([1]; Dog 11) was 1.47 ng/mL and the concentration at 6 h ([1]; Dog 12) was 14.1 ng/mL. The concentration at 6 h ([1]; Mean) was 6.28 ng/mL, the concentration at 8 h ([1]; time 8 h, Dog 10) was 1.47 ng/mL and the concentration at 8 h ([1]; time 8 h, Dog 12) was 4.62 ng/mL. The concentration at 8 h ([1]; time 8 h, Mean) was 3.05 ng/mL and the absorption ([1]; oral administration in dogs, compared with ARI-143) was “absorbed much more efficiently than ARI-143”.
